{
  "source": "ChEMBL document CHEMBL5154876",
  "about": "“Design, synthesis and promising anti-tumor efficacy of novel imidazo[1,2-a]pyridine derivatives as potent autotaxin allosteric inhibitors” (Eur J Med Chem, 2022)",
  "key": {"RAW264.7 [1]": {"system": "RAW264.7", "test": "Induction of cell cycle arrest in mouse RAW264.7 cells assessed as accumulation of cells in G1 phase at 0.1 uM incubated for 24 hrs by PI/RNase staining based flow cytometric analysis (RVB = 55.06%)", "format": "functional"}, "RAW264.7 [2]": {"system": "RAW264.7", "test": "Induction of apoptosis in mouse RAW264.7 cells assessed as viable cells at 0.1 uM after 48 hrs by Annexin V-FITC/PI based flow cytometric analysis (RVB=94.1%)", "format": "functional", "conditions": "read-out: Activity"}, "RAW264.7 [3]": {"system": "RAW264.7", "test": "Induction of cell cycle arrest in mouse RAW264.7 cells assessed as accumulation of cells in G2 phase at 1 uM incubated for 24 hrs by PI/RNase staining based flow cytometric analysis (RVB = 10.90%)", "format": "functional"}, "RAW264.7 [4]": {"system": "RAW264.7", "test": "Cytotoxicity against mouse RAW264.7 cells assessed as inhibition of cell growth incubated for 72 hrs by MTT assay", "format": "functional, cell-based", "conditions": "RAW264.7, 72 h"}, "RAW264.7 [5]": {"system": "RAW264.7", "test": "Induction of cell cycle arrest in mouse RAW264.7 cells assessed as accumulation of cells in S phase at 0.5 uM incubated for 24 hrs by PI/RNase staining based flow cytometric analysis (RVB = 34.03%)", "format": "functional"}, "RAW264.7 [6]": {"system": "RAW264.7", "test": "Antimigratory activity against mouse RAW264.7 cells assessed as decrease in cell migration rate measured upto 72 hrs by scratch wound healing assay", "format": "functional, cell-based", "conditions": "DDE = dose-dependent effect"}, "RAW264.7 [7]": {"system": "RAW264.7", "test": "Induction of apoptosis in mouse RAW264.7 cells assessed as early apoptotic cells at 0.25 uM after 48 hrs by Annexin V-FITC/PI based flow cytometric analysis (RVB=5.57%)", "format": "functional"}, "[8]": {"test": "Acute toxicity in C57BL/6J mouse assessed as safety concern at 1000 to 5000 mg/kg measured after 14 days", "format": "organism-based", "conditions": "in vivo, 336 h, dose 1000-5000 mg/kg, time 14 day"}, "RAW264.7 [9]": {"system": "RAW264.7", "test": "Induction of cell cycle arrest in mouse RAW264.7 cells assessed as accumulation of cells in G1 phase at 0.25 uM incubated for 24 hrs by PI/RNase staining based flow cytometric analysis (RVB = 55.06%)", "format": "functional"}, "RAW264.7 [10]": {"system": "RAW264.7", "test": "Induction of apoptosis in mouse RAW264.7 cells assessed as viable cells at 0.25 uM after 48 hrs by Annexin V-FITC/PI based flow cytometric analysis (RVB=94.1%)", "format": "functional", "conditions": "read-out: Activity"}, "RAW264.7 [11]": {"system": "RAW264.7", "test": "Induction of apoptosis in mouse RAW264.7 cells assessed as late apoptotic cells at 0.1 uM after 48 hrs by Annexin V-FITC/PI based flow cytometric analysis (RVB=0.098%)", "format": "functional"}},
  "data": [
    {"smiles": "CCc1nc2c(C)cc(-c3ccc(CN4CCN(CCO)CC4)cc3)cn2c1NC(=O)OCc1cc(Cl)cc(Cl)c1", "values": [
      {"measurement": "Activity", "setting": "RAW264.7 [1]", "value": 14.72, "unit": "%"},
      {"measurement": "viability at 0.1 µM", "setting": "RAW264.7 [2]", "value": 92.8, "unit": "%"},
      {"measurement": "Activity", "setting": "RAW264.7 [3]", "value": 90.16, "unit": "%"},
      {"measurement": "IC50", "setting": "RAW264.7 [4]", "value": 630, "unit": "nM"},
      {"measurement": "Activity", "setting": "RAW264.7 [5]", "value": 4.78, "unit": "%"},
      {"measurement": "Activity", "setting": "RAW264.7 [6]", "value": "Dde"},
      {"measurement": "Activity", "setting": "RAW264.7 [7]", "value": 6, "unit": "%"},
      {"measurement": "Activity", "setting": "[8]", "value": "Non-Toxic"},
      {"measurement": "Activity", "setting": "RAW264.7 [9]", "value": 10.61, "unit": "%"},
      {"measurement": "viability at 0.25 µM", "setting": "RAW264.7 [10]", "value": 92, "unit": "%"},
      {"measurement": "Activity", "setting": "RAW264.7 [11]", "value": 0.44, "unit": "%"}
    ]}
  ]
}
